Data on 1 molecule can be found in PMC9011347, “Small-Molecule Inhibitors Targeting Lipolysis in Human Adipocytes” (Journal of the American Chemical Society, 2022).

The target in this assay is T1, human pancreatic lipase (Homo sapiens, UniProt P16233).
T1 construct: purchased MilliporeSigma SRE0028
In words: Activity of purified pancreatic lipase, radiolabeled triolein. The class given is biochemical. As to conditions: NG-497 100 µM. As to the method: Fig. S3: Investigation of off-target effects of NG-497 on structurally and functionally related lipid hydrolases. (a) PNPLA1-dependent formation of acylceramides was monitored in a cell-based assay in HEK293T cells. Experiments were performed in the presence or absence of NG-497 (40 µM) and the non-selective lipase inhibitor Orlistat (40 µM). Orlistat, but not NG-497, inhibited PNPLA1/CGI-58-dependent ω-O-acylceramide formation. (b-h) Enzymes were overexpressed in Expi293 cells and cell lysates were used as source of enzymatic activity. […] Experiments were performed in the presence or absence of NG-497 (100 µM) and the formation of reaction products was monitored. […]
Data were calculated relative to the basal activity detected in LacZ-transfected controls. […]
LPL activity was inhibited using an anti-LPL antibody. All data are presented as mean ± S.D. Statistical significance was determined via ANOVA followed by Bonferroni post hoc test ( ***, p < 0.001). […]
Released free fatty acids were quantified via NEFA C kit (Fujifilm Wako Chemicals, Neuss, Germany) and release of p-nitrophenol was measured at 405 nm. […] Cellular ω-O-acylceramide formation was monitored using [1-14C]linoleic acid as tracer. […] The activity of purified human pancreatic lipase (MilliporeSigma #SRE0028) was determined as previously described7 in the presence or absence of NG-497 (100µM) or Orlistat (20 µM). […]

T1 sequence (P16233 17-465): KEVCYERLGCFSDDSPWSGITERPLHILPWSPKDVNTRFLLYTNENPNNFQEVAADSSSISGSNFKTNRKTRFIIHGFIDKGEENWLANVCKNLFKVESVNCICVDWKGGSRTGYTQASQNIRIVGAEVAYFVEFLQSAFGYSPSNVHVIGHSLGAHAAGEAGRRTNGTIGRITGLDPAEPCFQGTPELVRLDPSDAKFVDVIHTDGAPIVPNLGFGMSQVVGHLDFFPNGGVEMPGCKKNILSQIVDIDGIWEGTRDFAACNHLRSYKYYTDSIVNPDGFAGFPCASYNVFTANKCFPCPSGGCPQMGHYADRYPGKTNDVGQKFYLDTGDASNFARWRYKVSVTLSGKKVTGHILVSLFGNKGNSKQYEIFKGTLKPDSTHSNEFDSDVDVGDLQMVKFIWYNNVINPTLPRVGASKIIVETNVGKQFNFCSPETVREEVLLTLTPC

For the molecule `CCOc1ccc(-c2cc(OC)cc(C(=O)OC(C)C)n2)cc1` [NG-497], the “inhibition of pancreatic lipase” value was “did not observe inhibition”.
